Earlier results on 1 molecule are cited in patent US8648203B2 (priority 2005, dated 2014).

Each structure is given as a SMILES string.

This data set has as its system benzimidazole and/or dicarboximide resistant strains of B. cinerea.

`O=[N+]([O-])c1cc(C(F)(F)F)c(Cl)c([N+](=O)[O-])c1Nc1ncc(C(F)(F)F)cc1Cl` [fluazinam, 3-chloro-N-(3-chloro-5-trifluoromethyl-2-pyridyl)-α,α,α-trifluoro-2,6-dinitro-p-toluidine]: the “activity against resistant strains of B. cinerea” value was “good activity”.
